Results taken from US20250339389A1, “N-ARACHIDONOYL ETHANOLAMINE COMPOSITION AND USE THEREOF” (NANJING NUTRABUILDING BIO-TECH CO., LTD., priority 2023, published 2025).

Tests used:
[1] = tested on: mood and depressive behavior; assay: Tail suspension test; type: in vivo, C57BL/6J mice; conditions: AEA 20 mg/kg/day
Description: (§1) Experimental materials: The experimental animals used in this experiment are male C57BL/6J mice, 6 weeks old, with an initial weight of 18-22 g and SPF grade. The feeding environment of the mice is room temperature of 22±1° C. and humidity of 55±10%, and the mice are fed with normal feed. Mice were randomly divided into blank control group and AEA group, with 10 mice in each group. The AEA group was given a dose of 20 mg/kg/day, while the blank control group was given distilled water of the same volume.
(§2) Experimental method: Tail suspension test and forced swimming test were used to evaluate mood and depressive behavior. Forced swimming test: put a single mouse into a beaker and keep the water temperature at (25±2)° C. The experiment lasted for 6 min, and the immobility time of mice within 4 min was calculated. Tail suspension test: a mouse was fixed at the back ⅓ of the tail end with adhesive tape and hung upside down on an iron bar, with its head 10 cm away from the bottom of the box. The experiment lasted for 6 min, and the immobility time of mice within 4 min was calculated.

[2] = tested on: mechanical pain sensitivity; assay: SNL model (L5 spinal nerve ligation), Von Frey mechanical pain sensitivity; type: in vivo, ICR mice
Description: Experimental material: The experimental animals used in this experiment are male ICR mice, with an initial weight of 30±2 g and SPF grade. The feeding environment of the mice is room temperature of 22±2° C., and the humidity is controlled at 70%-80%. Mice were free to drink water and eat, and fed with normal feed.
Experimental method: Preparation of animal model: Establishment of SNL model of ligation of the fifth spinal nerve on the left lumbar vertebra in mice: After the animals were anesthetized with isoflurane, the L5 transverse process on the left back was exposed, the L5 nerve was dissociated and ligated with No.6 ophthalmic thread, and the wound was treated with penicillin and then sutured. In Sham group, only L5 transverse process was exposed without nerve ligation. After the model was established, the behavior of mice was observed, and the individuals with impaired motor behavior were excluded. […] Grouping and administration: Mice were randomly divided into Sham group, model group and AEA group (20 mg/kg/day), with 8 mice in each group. The three groups were administered by gavage for 16 d, wherein the Sham group and model group were given the same volume of distilled water by gavage. Von Frey method was used to detect the mechanical pain sensitivity of mice: after administration, the mice were placed in an organic glass box in a quiet room to adapt for 1.5 h, so that the mice were in a resting state. Von Frey fibers were used to continuously stimulate the L5 nerve reflex area on the sole of the operated hind limb for 3˜4 s, and the test was conducted for 4 times, with an interval of 5 min each time, and the threshold of 50% mechanical foot retraction of the hind paw was recorded.

Roseburia = assay: Relative abundance of Roseburia in feces of high-fat diet mice (16S rDNA sequencing); type: in vivo; conditions: high-fat+AEA group, AEA 20 mg/kg once a day, four weeks
Description: (§3) After a week of adaptive feeding, mice were randomly divided into three groups according to sex and weight: group 1, normal group, n=10; group 2, high-fat diet group, n=10; and group 3, high-fat diet+AEA group, n=10. The normal group was given normal feed, while the high-fat diet group was given high-fat and high-sugar feed (containing 35% fat, 18% protein and 47% carbohydrate), and the high-fat diet+AEA group was given high-fat and high-sugar feed containing AEA (20 mg/kg), for four weeks. The specific gavage scheme is: calculate and gavage once a day according to the weight of mice, while the normal group gavage with the same amount of normal saline. Four samples of mouse feces were randomly taken from each group. The samples were first extracted for DNA, 16S rDNA was amplified by PCR, and then sequenced, and the relative abundance of each strain was analyzed.
(§4) FIG. 2 is a graph showing changes in the relative abundance of Roseburia. […] FIG. 3 is a graph showing changes in the relative abundance of Bacteroides. […] After AEA treatment, the level of Bacteroides in obese mice induced by high-fat diet increased by 20%. FIG. 4 is a graph showing changes in the relative abundance of Prevotella. […] After AEA treatment, the level of Prevotella in obese mice induced by high-fat diet increased by 25%. FIG. 5 is a graph showing changes in the relative abundance of Salmonella. […]

acute colitis model = assay: DSS-induced acute colitis model, disease activity index (DAI); type: in vivo, mice; conditions: 3% DSS for 9 days, AEA daily dose 2.5 mg/kg; model group close to 3
From the text: Experimental method: Thirty 4-6-week-old mice, 15 males and 15 females, were selected for adaptive feeding for 7 days in advance. They were randomly divided into control group (CON), model group (DSS) and administration group (DSS+AEA), with 10 mice in each group. The model group and the administration group were gavaged with 3% dextran sodium sulfate (DSS) for 9 days to establish an acute colitis model, while the control group was gavaged with the same amount of normal saline every day. The weight, feces and rectal bleeding of mice were recorded every day, and the disease activity index (DAI) was used to evaluate the condition of colitis. The DAI value was obtained by adding all the scores and dividing them by three. Mice in the administration group were given AEA at a daily dose of 2.5 mg/kg. On the 10th day, blood was taken from the orbit of each mouse, and then it was killed. Colon tissues were collected, fixed in 4% paraformaldehyde solution and stored at −80° C. for subsequent analysis. The pathological damage of colon tissue was examined by hematoxylin-eosin staining and Alxin blue staining.

Bacteroides = assay: Relative abundance of Bacteroides in feces of high-fat diet mice (16S rDNA sequencing); type: in vivo; conditions: obese mice induced by high-fat diet, AEA 20 mg/kg once a day, four weeks
Description: as §3, §4

Escherichia coli = assay: Relative abundance of Escherichia coli in feces of high-fat diet mice (16S rDNA sequencing); type: in vivo; conditions: obese mice induced by high-fat diet, AEA 20 mg/kg once a day, four weeks
Description: as §3, §4

Prevotella = assay: Relative abundance of Prevotella in feces of high-fat diet mice (16S rDNA sequencing); type: in vivo; conditions: obese mice induced by high-fat diet, AEA 20 mg/kg once a day, four weeks
Description: as §3, §4

Bacteroides/Firmicutes = assay: Relative abundance ratio of Bacteroides and Firmicutes in feces of high-fat diet mice (16S rDNA sequencing); type: in vivo; conditions: obese mice induced by high-fat diet, AEA 20 mg/kg once a day, four weeks
Description: as §3
Abundance ratio of Bacteroides and Firmicutes: Bacteroides is the representative of intestinal probiotics and Firmicutes is the representative of intestinal harmful bacteria. The higher the ratio, the healthier the intestinal flora is.

[3] = tested on: mood and depressive behavior; assay: Forced swimming test; type: in vivo, C57BL/6J mice; conditions: AEA 20 mg/kg/day
Description: as §1, §2

Salmonella = assay: Relative abundance of Salmonella in feces of high-fat diet mice (16S rDNA sequencing); type: in vivo; conditions: obese mice induced by high-fat diet, AEA 20 mg/kg once a day, four weeks
Description: as §3, §4

In the case of `CCCCC/C=C\C/C=C\C/C=C\C/C=C\CCCC(=O)NCCO` [AEA, N-arachidonoyl ethanolamine], the “reduction of immobility time compared with the blank group, tail suspension test” value [1] is reported as 28%, the “threshold of 50% foot contraction” value ([2]; administration 1 d, AEA 20 mg/kg/day by gavage, SNL model 0.005 ± 0.002) is reported as 0.010 ± 0.010 and the “threshold of 50% foot contraction” value ([2]; administration 6 d, AEA 20 mg/kg/day by gavage, SNL model 0.019 ± 0.008) is reported as 0.067 ± 0.013. For the same compound, the “threshold of 50% foot contraction” value ([2]; administration 11 d, AEA 20 mg/kg/day by gavage, SNL model 0.018 ± 0.018) was 0.133 ± 0.023, the “threshold of 50% foot contraction” value ([2]; administration 16 d, AEA 20 mg/kg/day by gavage, SNL model 0.020 ± 0.018) was 0.193 ± 0.002 and the “threshold of 50% foot contraction compared with the SNL model (in words)” value ([2]; after 6 days of administration, AEA 20 mg/kg/day by gavage) was “increased significantly”. For the same compound, the “threshold of 50% foot contraction” value ([2]; before modeling (baseline)) was 0.323 ± 0.040, the “level (relative abundance) of Roseburia” value (Roseburia) was “close to that in normal mice” and the DAI score (acute colitis model) was “about 2”. For the same compound, the “increase of level of Bacteroides after AEA treatment” value (Bacteroides) was 20%, the “decrease of level of Escherichia coli after AEA treatment” value (Escherichia coli) was 42% and the “increase of level of Prevotella after AEA treatment” value (Prevotella) was 25%. For the same compound, the “ratio of Bacteroides/Firmicutes” value (Bacteroides/Firmicutes) was “increased after AEA administration, which was close to the level of normal group”, the “reduction of immobility time compared with the blank group, forced swimming test” value [3] was 23% and the “decrease of Salmonella level after AEA treatment” value (Salmonella) was 20%.
